Experimental data as given in patent publication US20240254138A1, “TRICYCLIC PYRIMIDINES AS CYCLIN-DEPENDENT KINASE 7 (CDK7) INHIBITORS” (JANSSEN PHARMACEUTICA NV, priority 2021, published 2024).

What was measured:
[1] = tested on: RNA Polymerase II Serine 5 phosphorylation (Rpb1 CTD, downstream substrate of CDK7) in A549 cells; assay: Imaging-based cellular RNA PolII Ser5 phosphorylation assay in A549 cells; type: cell-based, human; settings: wild-type CDK7, RNA PolII Ser5 phosphorylation, averaged over all measurements; for IC50: Homo sapiens, A549, A549 cells, read-out: CDK7_A549 Wild-type CDK7 (pIC50) (converted); for CDK7_A549 Wild-type CDK7 (pIC50): A549 cells
Excerpt: (§1) To evaluate inhibition of CDK7 kinase activity, a 384-well automated imaging assay was used. This assay detects Serine 5 phosphorylation on a unique heptapeptide sequence in the C-terminal domain of Rpb1 subunit of RNA polymerase II, the downstream substrate of CDK7. This heptapeptide sequence is repeated up to 52 times in the CTD of Rpb1.
(§2) A549 adenocarcinoma human alveolar basal epithelial cells (ATCC, CCL-185), rabbit Phospho-Rpb1 CTD (Ser5) antibody (D9N51 (Cell Signaling Technology)), DMEM (Sigma), Fetal Bovine Serum (Biowest), L-glutamine (Sigma), Penicillin/Streptomycin (Life Technologies), Sodium Pyruvate (Sigma), Hepes (Sigma), poly-D-lysine coated μclear 384 black plates (Greiner), formaldehyde (PolySciences), D-PBS (Sigma), Methanol (Sigma), Alexa Fluor 488 goat anti rabbit IgG secondary antibody (Life Technologies), HCS CellMask™ Deep Red stain (Life Technologies), Hoechst 33258 (Invitrogen).
(§3) RNA Polymerase II Serine 5 phosphorylation was detected using a specific rabbit Phospho-Rpb1 CTD (Ser5) antibody. A549 adenocarcinoma human alveolar basal epithelial cells were seeded in 20 μl medium (DMEM supplemented with 1% Fetal Bovine Serum (heat inactivated 30′ 56° C.), 2 mM L-glutamine, 50 U/ml penicillin 50 μg/ml streptomycin, 1 mM sodium pyruvate and 50 mM hepes) at 1000 cells/well and cultured in poly-D-lysine coated μclear 384 black plates for 20 hours at 37° C. and 5% CO2.
(§4) After incubation cells were challenged with compound for 3 hours at 37° C. and 5% CO2. DMSO was used as high control and as low control 10 μM of the following reference compound was used:
(§5) 40 nl of test compounds and controls were spotted in cell plates using Echo Liquid Handler (Echo 550, Labcyte). Incubation was followed by 20 minutes fixation with 20 μl 10% formaldehyde at room temperature. Medium/formaldehyde solution was removed, plates were washed 3 times with 30 μl D-PBS (w/o Ca^2+ and Ma^2+) and permeabilization was done by adding 20 μl ice cold methanol for 20 minutes. Cells were washed again 3 times with 30 μl D-PBS and 20 μl blocking buffer (25 ml fetal bovine serum in 500 ml D-PBS) was added for 1 hour.
(§6) After removing blocking buffer 20 μl 1/1000 primary antibody rabbit Phospho-Rpb1 CTD (Ser5) antibody was added which binds to the phosphorylated Serine5 of the heptapeptide sequences in the CTD of Rpb1. Primary antibody was removed, and plates were washed 3 times with 30 μl D-PBS followed by addition of 20 μl 1/2000 Alexa Fluor 488 goat anti rabbit IgG secondary antibody for final detection of Phospho-Rpb1 CTD (Ser5) together with 1/5000 HCS CellMask™ Deep Red stain for membrane staining and 1/5000 Hoechst 33258 for nucleus staining. Last, plates were washed 2 times with 30 μl D-PBS and wells were filled with 40 μL D-PBS, plates were sealed (Thermowell sealing tape) and stored at 4° C. until reading. Plates were read with Opera Phenix (Perkin Elmer) with 10× air objective. Data were calculated and analyzed in Phaedra.
(§7) IC50 values were calculated using the following formula: […]
(§8) Average value of all HC's and all LC's are used for normalizations.
(§9) A best-fit curve is fitted by a minimum sum of squares method to the plot of % Control vs. compound concentration. From this an IC50 value can be obtained. An estimate of the slope of the plot in terms of the Hill coefficient is also obtained.

[2] = tested on: RNA Polymerase II Serine 5 phosphorylation in A549 cells overexpressing CDK7-mutant (C312S); assay: Imaging-based cellular RNA PolII Ser5 phosphorylation assay in A549 cells overexpressing CDK7-mutant (C312S); type: cell-based, human; settings: RNA PolII Ser5 phosphorylation, averaged over all measurements; for IC50: Homo sapiens, A549, A549 cells overexpressing CDK7-mutant (C312S), read-out: CDK7_A549 mutant hCDK7(pIC50) (converted); for CDK7_A549 mutant hCDK7(pIC50): A549 cells overexpressing CDK7-mutant (C312S)
Excerpt: as §1, §2, §3, §4, §5, §6, §7, §8, §9
In parallel this assay was performed in A549 cells overexpressing CDK7-mutant (C312S) to evaluate the effect of the covalent bond on potency and to screen for potential off-target effects. Mutation of Cysteine to Serine (C312S), a less nucleophilic amino acid, prevents CDK7 inhibitors from covalently binding to CDK7 and from inhibiting CDK7 activity in an irreversible manner. A stably transduced A549 cell pool was generated that overexpresses CDK7 mutant (C312S), but also expresses endogenous CDK7-WT. Covalent binders targeting the cysteine at position 312 will show a shift in potency in A549 cells overexpressing mutant C312S CDK7.

SMILES	IC50 [1]	IC50 [2]	CDK7_A549 Wild-type CDK7 (pIC50) [1]	CDK7_A549 mutant hCDK7(pIC50) [2]
CC#CC(=O)N1CCC(N2CC[C@H](c3cc4c(c(C)n3)OCc3c(N5CCOCC5)ccnc3N4)C2)CC1 (single isomer, unassigned) [Compound 438]	0.191 µM	3.09 µM	–	–
CC#CC(=O)N1CC(N2CC(c3cc4c(c(C)n3)O[C@@H](C)c3c(N5CCOCC5)ccnc3N4)C2)C1 (single isomer, unassigned) [Compound 441]	–	–	<5	<5
CC#CC(=O)N1CC(N2CC[C@@H](c3cc4c(c(C)n3)OCc3c(N5CCOCC5)ccnc3N4)N(C)CC2)C1 (single isomer, unassigned) [Compound 446]	0.794 µM	> 10 µM	–	–
CC#CC(=O)N1CC(N2CC[C@H](c3cc4c(c(C)n3)OCc3c(N5CCOCC5)ccnc3N4)N(C)CC2)C1 (single isomer, unassigned) [Compound 448]	0.209 µM	8.32 µM	–	–
CC#CC(=O)N1CC(n2cc(-c3cc(C#N)c4c(c3)Nc3nccc(N5CCOCC5)c3[C@@H](C)O4)cn2)C1 (single isomer, unassigned) [Compound 450]	1.78 µM	> 10 µM	–	–
C#Cc1cc(C2CN([C@@H]3CCN(C(=O)C=C)C3)C2)cc2c1OCc1c(-c3cnn(C)c3)ccnc1N2 (single isomer, unassigned) [Compound 473]	0.166 µM	> 10 µM	–	–
C=CC(=O)N1CCC(Cc2ccc3c(c2)Nc2nccc(-c4cncc(C)c4)c2CO3)C1 (stereo not drawn) [Compound 5]	> 10 µM	> 10 µM	–	–
C=CC(=O)N1CCC(Cc2ccc3c(c2)Nc2nccc(-c4cnccc4C)c2CO3)C1 (stereo not drawn) [Compound 6]	~9.33 µM	> 10 µM	–	–
C=CC(=O)N1CC(N2CCC(c3cc(C)c4c(c3)Nc3nccc(N5CCOCC5)c3CO4)CC2)C1 [Compound 20]	0.0589 µM	> 10 µM	–	–
C=CC(=O)N1CC(N2CCC(c3cc(C)c4c(c3)Nc3nccc(N5CCOCC5)c3CO4)CC2)C1 [Compound 21]	–	–	7.34	<5
C/C=C/C(=O)N1CC(N2CCC(c3ccc4c(c3)Nc3nccc(N5CCOCC5)c3CO4)CC2)C1 [Compound 106]	~10 µM	> 10 µM	–	–
C=CC(=O)N1CCC(N2CC(c3ccc4c(c3C)Nc3nccc(C5CCOCC5)c3CO4)C2)CC1 [Compound 131]	6.61 µM	> 10 µM	–	–
C#CCCN(C)C/C=C/C(=O)N1CC(N2CCC(c3cc(Cl)c4c(c3)Nc3nccc(N5CCOCC5)c3CO4)CC2)C1 [Compound 168]	0.0776 µM	> 10 µM	–	–
C=CC(=O)N1CC(N2CCC(c3ccc4c(c3)Nc3nccc(C5CCOCC5)c3CO4)CC2)C1 [Compound 254]	–	–	6.97	<5
C=CC(=O)N1CC(N2CCOC(c3ccc4c(c3)OCc3c(N5CCOCC5)ccnc3N4)C2)C1 (stereo not drawn) [Compound 266]	~10.2 µM	> 10 µM	–	–
CC#CC(=O)N1CC(N2CCC(c3cc4c(c(C)n3)OCc3c(-c5cnn(C)c5)ccnc3N4)CC2)C1 [Compound 276]	0.195 µM	> 10 µM	–	–
C=CC(=O)N1CC(c2nc(C)c(-c3cc4c(c(C)n3)OCc3c(N5CCOCC5)ccnc3N4)c(C)n2)C1 [Compound 280]	0.126 µM	> 10 µM	–	–

The next lines start with the values.

IC50 [1]	IC50 [2]	CDK7_A549 Wild-type CDK7 (pIC50) [1]	CDK7_A549 mutant hCDK7(pIC50) [2]	SMILES
0.575 µM	> 10 µM	–	–	C=CC(=O)N1CC[C@@H](N2CC(c3cc4c(c(C#N)n3)OCc3c(N5CCOCC5)ccnc3N4)C2)C1 (single isomer, unassigned) [Compound 474]
3.02 µM	> 10 µM	–	–	CC#CC(=O)N1CC(N2CCC(c3cc4c(c(C#N)n3)O[C@H](C)c3c(N5CCOCC5)ccnc3N4)CC2)C1 (single isomer, unassigned) [Compound 481]
0.12 µM	> 10 µM	–	–	CC#CC(=O)N1CC(N2CCC(c3cc4c(c(C#N)n3)O[C@@H](C)c3c(N5CCOCC5)ccnc3N4)CC2)C1 (single isomer, unassigned) [Compound 485]
0.126 µM	9.55 µM	–	–	C#Cc1cc(C2CN([C@H]3CCN(C(=O)C=C)C3)C2)cc2c1OCc1c(-c3cnn(C)c3)ccnc1N2 (single isomer, unassigned) [Compound 492]
–	> 10 µM	7.56	–	CC#CC(=O)N1CC[C@H](N2CC(c3cc4c(c(C)n3)O[C@@H](C)c3c(N5CCOCC5)ccnc3N4)C2)C1 (single isomer, unassigned) [Compound 512]
–	> 10 µM	6.36	–	CC#CC(=O)N1CC[C@@H](N2CC(c3cc4c(c(C)n3)O[C@H](C)c3c(N5CCOCC5)ccnc3N4)C2)C1 (single isomer, unassigned) [Compound 513]
~0.0115 µM	8.91 µM	–	–	CC#CC(=O)N1CC[C@@H](N2CC(c3cc4c(c(C)n3)O[C@@H](C)c3c(N5CCOCC5)ccnc3N4)C2)C1 (single isomer, unassigned) [Compound 515]
–	> 10 µM	5.68	–	CC#CC(=O)N1CC[C@H](N2CC(c3cc4c(c(C)n3)O[C@H](C)c3c(N5CCOCC5)ccnc3N4)C2)C1 (single isomer, unassigned) [Compound 516]
–	–	5.03	<5	CC#CC(=O)N1CC(N2CCC(c3cc4c(c(C)n3)O[C@H](C)c3c(N5CCOCC5)ccnc3N4)CC2)C1 (single isomer, unassigned) [Compound 524]
–	–	<5	<5	CC#CC(=O)N1CC[C@H](N2CC(c3cc4c(c(C)n3)O[C@H](C)c3c(N5CCOCC5)ccnc3N4)C2)C1 (single isomer, unassigned) [Compound 530]
–	–	<5	<5	CC#CC(=O)N1CC[C@@H](N2CC(c3cc4c(c(C)n3)O[C@H](C)c3c(N5CCOCC5)ccnc3N4)C2)C1 (single isomer, unassigned) [Compound 531]
–	–	6.33	<5	CC#CC(=O)N1CC[C@H](N2CC(c3cc4c(c(C)n3)O[C@@H](C)c3c(N5CCOCC5)ccnc3N4)C2)C1 (single isomer, unassigned) [Compound 533]
~9.55 µM	> 10 µM	–	–	CC#CC(=O)N1CC(N2CCC(c3cc4c(c(C)n3)O[C@@H](C)c3c(-c5cnn(C)c5)ccnc3N4)CC2)C1 (single isomer, unassigned) [Compound 534]
0.0631 µM	~10 µM	–	–	CC#CC(=O)N1CCC(N2CCC(c3cc4c(c(C)n3)O[C@@H](C)c3c(N5CCOCC5)ccnc3N4)CC2)C1 (single isomer, unassigned) [Compound 535]
2.95 µM	> 10 µM	–	–	CC#CC(=O)N1CCC(N2CC(c3cc4c(c(C#N)n3)O[C@H](C)c3c(N5CCOCC5)ccnc3N4)C2)CC1 (single isomer, unassigned) [Compound 544]
0.117 µM	2.82 µM	–	–	CC#CC(=O)N1CCC(N2CC(c3cc4c(c(C#N)n3)O[C@@H](C)c3c(N5CCOCC5)ccnc3N4)C2)CC1 (single isomer, unassigned) [Compound 545]
